Assay results published in patent publication US9889111B2, “Pharmaceutical composition comprising omega-(arylsulfonyl)alkylnitrile” (OLATEC THERAPEUTICS LLC, priority 2012, dated 2018).

What was measured:
[1] = tested on: arachidonic acid-induced ear swelling; test: Topical arachidonic acid-induced ear swelling model in mice (topical application); assay type: in vivo, mice (male ICR); details: 20 μL applied 30 min before and 15 min after arachidonic acid, measured at 90 minutes
Procedure: The test compounds, indomethacin (positive control), and vehicle were evaluated for anti-inflammatory activity in a topical arachidonic acid-induced ear swelling model in mice. Male ICR mice weighing 22±2 g were used and randomly divided. Arachidonic Acid (0.5 mg in 20 μl of acetone:ethanol/1:1) was applied topically to the anterior and posterior surfaces of the right ear of each mice. Test compounds and vehicle, as listed in Table 1 were similarly applied 30 minutes before and 15 minutes after arachidonic acid application. The thickness of the right ear and the left ear was measured and the difference calculated as an indication of the inflammation in the right ear. Ear swelling was measured by a Dyer model micrometer gauge at 60 and 90 minutes after arachidonic acid application as an index of inflammation. Percent inhibition was calculated according to the formula: Ic−It/Ic×100, where Ic and It refers to increase of ear thickness (mm) in control and treated mice, respectively. ANOVA and Dunnett's test were employed to ascertain significant difference between vehicle control and treated groups. Significance is set at P<0.05 level. The test compounds, indomethacin (positive control), and vehicle were evaluated for anti-inflammatory activity in a topical arachidonic acid-induced ear swelling model in mice. Male ICR mice weighing 22±2 g were used and randomly divided; the test compound and vehicle control had 10 mice, and indomethacin had 5 mice. Arachidonic Acid (0.5 mg in 20 μl of acetone:ethanol/1:1) was applied topically to the anterior and posterior surfaces of the right ear of each mouse. Test substances and vehicle, as listed in Table 4 were similarly applied 30 min before and 15 min after arachidonic acid application. The thickness of the right ear and the left ear was measured and the difference calculated as an indication of the inflammation in the right ear. Ear swelling was measured by a Dyer model micrometer gauge at 60 and 90 minutes after arachidonic acid application as an index of inflammation. Percent inhibition was calculated according to the formula: Ic−It/Ic×100, where Ic and It refers to increase of ear thickness (mm) in control and treated mice, respectively. ANOVA and Dunnett's test were employed to ascertain significant difference between vehicle control and treated groups. Significance is set at P<0.05 level.

[2] = tested on: arachidonic acid induced ear swelling; test: Arachidonic acid induced ear swelling model in mice (oral administration); assay type: in vivo, mice (male ICR derived); details: for % Inhibition (ear swelling): Table 8, oral gavage, test compound 30 mg/kg 1 hour before, dexamethasone 0.3 mg/kg 3 hour before arachidonic acid, measured at 90 minutes
Procedure: 3-[(4-Methylphenyl)sulfonyl]propionitrile was suspended in vehicle (1% Tween 80 in water) to 3 mg/mL. The test compound, dexamethasone (positive control in vehicle), and vehicle were orally administered to mice and evaluated for anti-inflammatory activity in the topical arachidonic acid induced ear swelling model in mice.
Male ICR derived mice weighing 22±2 g were used in this experiment. 10 mice were used for each group (active compound, positive control, and vehicle). All animals were maintained in a controlled temperature (22-24° C.) and humidity (60%-70%) environment with 12-hour light/dark cycles for at least one week prior to use.
Arachidonic acid (0.5 mg in 20 μL acetone) was applied topically onto the anterior and posterior surfaces of the right ear of test animals to induce inflammation. Active compound in vehicle (10 mL/kg) and vehicle (10 mL/kg, […]) was orally administered by gavage 1 hour before arachidonic acid, whereas dexamethasone was orally administered by gavage 3 hour before arachidonic acid challenge. At 60 minutes and 90 minutes after arachidonic acid induction of ear edema, the thickness of the right ear and the left ear was measured and the difference calculated as an indication of the inflammation in the right ear.

[3] = Table 6, test compounds 375 mM, indomethacin 14 mM (0.5% w/v)
[4] = Table 7, test compounds 375 mM, indomethacin 14 mM

| SMILES | % Inhibition (ear swelling) [1, 3] | % Inhibition (ear swelling) [1, 4] | further results |
| --- | --- | --- | --- |
| COc1ccc2c(c1)c(CC(=O)O)c(C)n2C(=O)c1ccc(Cl)cc1 [Indomethacin, reference compound] | 57% | 58% |  |
| N#CCCS(=O)(=O)c1ccccc1 [3-(phenylsulfonyl)propionitrile] | 36% |  |  |
| N#CCCS(=O)(=O)c1ccc(Cl)cc1 [3-[(4-chlorophenyl)sulfonyl]propionitrile] | 20% |  |  |
| Cc1ccc(S(=O)(=O)CCC#N)cc1 [3-[(4-methylphenyl)sulfonyl]propionitrile] | 44% |  | % Inhibition (ear swelling) [2]: 16%; Inhibition in arachidonic acid induced ear swelling (in words) ([2]; oral administration, at 90 minutes): significant inhibition |
| C[C@@H]1C[C@H]2[C@@H]3CCC4=CC(=O)C=C[C@]4(C)[C@@]3(F)[C@@H](O)C[C@]2(C)[C@@]1(O)C(=O)CO [Dexamethasone, reference compound] |  |  | % Inhibition (ear swelling) [2]: 36% |
| COc1ccc(S(=O)(=O)CCC#N)cc1 [3-(4-methoxyphenyl)sulfonylpropionitrile] |  | 23% |  |
| N#CCCS(=O)(=O)c1ccc2ccccc2c1 [3-(naphthalene-2-sulfonyl)propionitrile] | 25% |  |  |
| N#CCCS(=O)(=O)c1ccc(Cl)c(Cl)c1 [3-(3,4-dichlorophenyl)sulfonylpropionitrile] |  | 28% | melting point: 137.7 to 140.2 °C |
